# Patent publication US20150118215A1, “Methods of Inhibiting Cell Proliferation” (The General Hospital Corporation, priority 2012, published 2015)
# Entries after “also recorded” stand apart in the source; their conditions may differ.
# Assays:
# MTC cells [1] = test: Cell population endocytic uptake assay (albumin-Alexa555, RITC-dextran) in MTC cells; type: cell-based; conditions: for effect on endocytic uptake of fluid phase marker RITC-dextran: control and peptide-stimulated conditions, inhibitors; for effect on uptake of albumin-Alexa555 via receptor-mediated (CDE) pathway: control non-stimulated conditions; for effect on uptake of albumin-Alexa555 via receptor-mediated (CDE) pathway / effect on uptake of albumin-Alexa555 via FITC-a2N1-17-TAT peptide-induced macropinocytosis (CIE) pathway: 1 μM bafilomycin A1, 100 μM DMA or 100 μM EIPA; for effect on uptake of albumin-Alexa555 via FITC-a2N1-17-TAT peptide-induced macropinocytosis (CIE) pathway: peptide-stimulated
# Method: (§1) Cell Population Albumin Endocytic Uptake Assay—
# (§2) Quantitative endocytic uptake of albumin-Alexa555 and RITC-dextran was performed using a cell population assay as previously described (Hurtado-Lorenzo et al. (Nat Cell Biol 8, 124-136, 2006)). HeLa cells were seeded on 48-well plates (5,000 cells/well) and grown for 5 days. MTC cells were seeded on 48-well plates (5,000 cells/well) and grown for 7 days until polarized, followed by starvation for 2 days in serum-free DMEM medium. Cells were incubated in 200 μl of Ringer buffer (pH 7.4) containing either 200 μg/ml albumin-Alexa555 or 500 μg/ml RITC-dextran in the presence of 5 μM FITC-TAT or 5 μM FITC-a2N1-17-TAT peptides. As indicated, cells were also treated with 1 μM bafilomycin A1, 1 mM amiloride, 100 μM DMA or 100 μM EIPA. At the indicated times, cells were washed with Ringer's buffer (pH 6.0) for three times and were permeabilized in 20 mM MOPS (pH 7.0), 0.1% Triton X-100. The fluorescence was measured using a DTX 880 Microplate Reader (Beckman) with 535-nm excitation and 595-nm emission filters (FIGS. 7, 8, and 12).
# MTC cells [2] = test: Cell population albumin degradation assay (DQ-Red BSA); type: cell-based; conditions: 5 μM peptides, 1 μM bafilomycin A1, 20 mM NH4Cl, 1 mM amiloride, 100 μM DMA
# Method: Cell Population Albumin Degradation Assay—
# Quantitative protein degradation assay was performed using DQ-Red BSA. MTC cells were seeded on 48-well plate (5,000 cells/well) and grown for 7 days until being polarized, followed by starvation for two days in serum-free DMEM medium. Cells were washed with Ringer buffer (pH 6.0) for three times and with Ringer buffer (pH 7.4) once. Cells were then incubated in 200 μl of Ringer buffer (pH 7.4) containing as indicated: 5 μM FITC-TAT, 5 μM FITC-a2N1-17-TAT peptide, 1 μM baflomycin A1, 20 mM NH4Cl, 1 mM amiloride or 100 μM DMA. DQ-Red BSA was added to a final concentration of 10 μg/ml. The fluorescence was estimated using a DTX 880 Microplate Reader (Beckman) with 590-nm excitation and 625-nm emission filters every 3 minutes. The 48-well plate was kept at 37° C. in the microplate reader (FIG. 11).
# MTC cells [3] = test: Pulse-chase live time-lapse confocal imaging and tracking of endocytic vesicles; type: cell-based
# Method: Pulse-Chase Experiments and Live Time-Lapse Confocal Fluorescence Imaging—
# Live cell imaging of MTC cells was performed using time-lapse confocal fluorescent imaging as previously described (Hurtado-Lorenzo et al. (Nat Cell Biol 8, 124-136, 2006)). MTC cells were seeded on FluoroDish (World Precision Instruments, Inc) (25,000-100,000 cells/dish) and grown to about 50% confluency. To label the organelles of the endocytic pathway in vivo, MTC cells were transfected using lipofectamine 2000 (Invitrogen) with 5 μg of the plasmids: i) EEA1-GFP or Rab5-EGFP (early endosomal markers); ii) Rab7-EGFP (late endosomal marker), and iii) LAMP1-mGFP (lysosomal marker). After two days, the cells were washed for three times with Ringer's buffer (pH 6.0) followed by one wash with Ringer's buffer (pH 7.4) at 37° C., and i) pulsed for 15 min with 5 μM FITC-TAT and 100 μg/ml albumin-Alexa594: ii) pulsed for 15 min with 5 μM FITC-a2N1-17-TAT and 100 μg/ml albumin-Alexa594; or iii) pre-incubated in the presence or absence of 1 μM bafilomycin A1 and pulsed with 100 μg/ml albumin-Alexa594. The MTC cells transfected with EEA1-GFP, Rab5-EGFP, Rab7-EGFP and LAMP1-GFP plasmids were pulsed for 6-15 min with 5 μM of CTMR-a2N1-17-TAT peptide. After the pulse, cells were washed either by perfusion or rinsing with Ringer's buffer (pH 7.4) and incubated in an environmental chamber (37° C., 5% CO2) coupled to a Nikon inverted microscope. Videos were acquired with a spinning-disc confocal imaging system Ultra View RS (Perkin Elmer). FIGS. 9 and 10 show frames from these movies.
# Image Analysis and Tracking of Endocytic Vesicles—
# Dynamics of the movement of early endosomes, late endosomes and lysosomes labeled with either: i) albumin-Alexa594; ii) FITC-a2N1-17-TAT and albumin-Alexa594; or iii) CTMR-a2N1-17-TAT and transfected EEA1-GFP markers were tracked with Particle Tracker PlugIn (Merkulova et al. (Biochim BiophysActa 1797, 1398-1409, 2010)) for ImageJ (NIH). The trajectories that appeared for over 30 frames were further analyzed. The two-dimensional displacement between consecutive frames was calculated from changes in X and Y position coordinates and speed was calculated by dividing the displacement by time. The two-dimensional displacements between all possible combinations of frames were also calculated and the longest distance was defined as “maximum distance” of the trajectory. The speeds were averaged for 11 consecutive frames and the fastest speed was defined as “maximum speed” of the trajectory.
# HeLa cells = test: Cell population endocytic uptake assay (albumin-Alexa555, RITC-dextran) in HeLa cells; type: cell-based; conditions: 5 μM peptide
# Method: as §1, §2
# cytohesin-2 = target: T1, cytohesin-2 (Homo sapiens, UniProt Q99418); test: Radiolabel-based GEF-activity assay ([35S]-GTPγS binding) of full-length cytohesin-2 with myr-Arf1 or myr-Arf6; type: biochemical
# T1 construct: steady-state enzymatic GEF-activity analysis of full-length cytohesin-2 or Sec7 domain with Arf1 and Arf6; made in house; host or cells: E. coli BL21DE3
# T1 sequence (Q99418 1-400): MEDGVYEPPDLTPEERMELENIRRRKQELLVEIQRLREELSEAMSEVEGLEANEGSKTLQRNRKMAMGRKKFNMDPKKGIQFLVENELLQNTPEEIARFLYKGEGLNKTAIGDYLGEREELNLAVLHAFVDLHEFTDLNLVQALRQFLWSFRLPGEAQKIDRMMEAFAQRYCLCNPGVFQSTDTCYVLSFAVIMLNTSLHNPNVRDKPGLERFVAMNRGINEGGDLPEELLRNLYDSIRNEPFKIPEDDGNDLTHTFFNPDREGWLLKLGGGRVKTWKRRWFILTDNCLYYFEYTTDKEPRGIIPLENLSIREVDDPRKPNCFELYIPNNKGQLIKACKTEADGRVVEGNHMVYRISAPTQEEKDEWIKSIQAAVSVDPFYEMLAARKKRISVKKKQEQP
# Method: Two assays were used to determine the GDP/GTP-exchange activity of both full-length cytohesin-2 and Sec7 domain.
# a) Radiolabel-Based Assay.
# The lipids were dissolved in chloroform. […] Proteins were trapped on nitrocellulose filters.
# To test the potential signaling between V-ATPase and cytohesin-2/Arf GTP-binding proteins, a GEF-activity assay was established for cytohesin-2 (wt) and myristoylated myr-Arf6 (wt) and myr-Arf1 (wt) GTP-binding proteins (FIG. 2A). Human Arf1 was co-expressed with yeast N-myristoyltransferase in E. coli BL21/DE3 strain. Recombinant myr-Arf1 was purified from the E. coli lysate (A1) using an AKTApurifier equipped with HiTrapQ, Superdex200 columns (A2), and Phenyl Sepharose HP column (A3). Human Arf6 was also co-expressed with yeast N-myristoyltransferase in E. coli BL21/DE3 strain. Recombinant myr-Arf6 was extracted from insoluble fraction using Triton X-100 (B1). The extract was precipitated by 35% ammonium sulfate and myr-Arf6 purified with HiTrapQ column (B2). […] Several soluble, cell permeable and fluorescently labeled a2N1-17 derived peptides were synthesized, which were used in the current GEF-activity and structural studies in vitro.
# Human NSCLC A549 cells = test: Cell proliferation assays (MTT, direct cell counting); type: cell-based; conditions: A549, wild-type EGFR, KRas-G12S; three days treatment
# Method: Cell Proliferation Assays—
# First, MTT proliferation assay was carried out using cell growth determination kit according to manufacturer instructions (Sigma). Human NSCLC A549 cells which are expressing wild-type EGFR with KRas-G12S activation mutation were studied in these experiments. […] Medium was changed daily for three days, and cells were stained with MTT and DAPI when indicated.
# Second, direct cells counting assays were also performed as follows. Microscopic images of 0.317 mm^2 area each well were acquired for MTT stained cells and cells were counted using ImageJ (NIH). […] Alternatively, the cells were stained with DAPI and microscopic images of whole wells were acquired using DeltaVision system (Applied Precision). Cells were counted using Particle Tracker PlugIn for ImageJ as above (FIG. 13).
# [4] = target: T2, Sec7-domain of cytohesin-2 (Homo sapiens, UniProt Q99418); conditions: Biacore; a2N(1-17) peptide and Sec7-domain; read-out: dissociation constant KD; cited from earlier work
# T2 sequence (Q99418 72-201 limits assumed): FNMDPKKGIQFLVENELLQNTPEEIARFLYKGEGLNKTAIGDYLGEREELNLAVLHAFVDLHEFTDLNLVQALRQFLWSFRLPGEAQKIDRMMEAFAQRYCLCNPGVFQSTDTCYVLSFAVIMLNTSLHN
# [5] = EEA1-EGFP positive early endosomes, peptide in cytosol of MTC cells, 5 μM
compound,measurement,setting,value
"CN(C)c1nc(N)c(C(=O)N=C(N)N)nc1Cl.Cl [DMA, 5-N,N-dimethylamiloride hydrochloride]",effect on endocytic uptake of fluid phase marker RITC-dextran,MTC cells [1],not modulated
same,effect on uptake of albumin-Alexa555 via receptor-mediated (CDE) pathway,MTC cells [1]; hydrochloride,does not affect; also recorded: does not modulate
same,effect on uptake of albumin-Alexa555 via FITC-a2N1-17-TAT peptide-induced macropinocytosis (CIE) pathway,MTC cells [1]; hydrochloride,could inhibit; also recorded: strongly inhibits
same,effect on degradation of DQ-Red-BSA in endosomal/lysosomal compartments,MTC cells [2]; hydrochloride,significantly stimulated; also recorded: increased
"CCN(c1nc(N)c(C(=O)N=C(N)N)nc1Cl)C(C)C [EIPA, 5-(N-ethyl-N-isopropyl)amiloride]",effect on uptake of albumin-Alexa555 via receptor-mediated (CDE) pathway,MTC cells [1],does not affect
same,effect on uptake of albumin-Alexa555 via FITC-a2N1-17-TAT peptide-induced macropinocytosis (CIE) pathway,MTC cells [1],could inhibit
Cl.N [NH4Cl],effect on degradation of DQ-Red-BSA in endosomal/lysosomal compartments,MTC cells [2],strongly inhibited
N=C(N)NC(=O)c1nc(Cl)c(N)nc1N [amiloride],effect on degradation of DQ-Red-BSA in endosomal/lysosomal compartments,MTC cells [2],significantly stimulated
CO/C1=C\C(C)=C\[C@@H](C)[C@@H](O)[C@@H](C)C/C(C)=C/C=C/[C@H](OC)[C@@H]([C@@H](C)[C@@H](O)[C@H](C)[C@@]2(O)C[C@@H](O)[C@H](C)[C@@H](C(C)C)O2)OC1=O [bafilomycin A1],effect on moving distance of albumin-Alexa594 positive vesicles,"MTC cells [3]; MTC cells, 1 μM bafilomycin A1",time-dependent inhibitory effect
same,inhibitory effect on speed of albumin-Alexa594 positive vesicles,"MTC cells [3]; MTC cells, late stages of trafficking, 1 μM bafilomycin A1",20%
same,effect on endocytic uptake of fluid phase marker RITC-dextran,MTC cells [1],not modulated
same,effect on uptake of albumin-Alexa555 via receptor-mediated (CDE) pathway,MTC cells [1],inhibitory action; also recorded: inhibits
same,effect on uptake of albumin-Alexa555 via FITC-a2N1-17-TAT peptide-induced macropinocytosis (CIE) pathway,MTC cells [1],no effect; also recorded: does not modulate
same,effect on degradation of DQ-Red-BSA in endosomal/lysosomal compartments,MTC cells [2],strongly inhibited
CTMR- MGSLFRSESMCLAQLFL - YGRKKRRQRRR [CTMR-a2N1-17-TAT],moving distance of early endosomes,MTC cells [3]; [5],significant increase
same,moving speed of early endosomes,MTC cells [3]; [5],significant increase
"FITC-TAT: biologically inactive control peptide, FITC-labelled TAT sequence (YGRKKRRQRRR; SEQ ID NO:33); also purchased from Anaspec",effect on endocytic uptake of albumin-Alexa555 (in words),MTC cells [1]; 5 μM peptide,no effect and not
same,effect on uptake of fluid-phase marker RITC-dextran,MTC cells [1]; 5 μM peptide,not
same,effect on uptake of RITC-dextran,HeLa cells,not
same,effect on uptake of albumin-Alexa555,HeLa cells,not
same,effect on degradation of DQ-Red-BSA in endosomal/lysosomal compartments,MTC cells [2],did not have any effect; also recorded: do not affect
same,potently inhibits the enzymatic activity of cytohesin-2 (in words),cytohesin-2; with both myr-Arf6 and myr-Arf1 as substrate,not
MASVFRSEEMCLSQVFL [a4N1-17],inhibition of proliferation of human lung cancer A549 cells,Human NSCLC A549 cells,very potent inhibitors
MGELFRSEEMTLAQLFL [a1N1-17],inhibition of proliferation of human lung cancer A549 cells,Human NSCLC A549 cells,very potent inhibitors
MGSLFRSESMCLAQLFL [a2N1-17],inhibition of proliferation of human lung cancer A549 cells,Human NSCLC A549 cells,very potent inhibitors
same,more potent inhibitor of cytohesin-2 than SecinH3,cytohesin-2; relative to SecinH3,up to 150 times
MGSLFRSETMCLAQLFL [a2N(1-17)],Kd,[4],344 nM
MGSMFRSEEVALVQLLL [a3N1-17],inhibition of proliferation of human lung cancer A549 cells,Human NSCLC A549 cells,very potent inhibitors
